Data reported in patent publication US20110263668A1, “Beta 3-Adrenoreceptor Agonists for the Treatment of Cardiac Hypertrophy and Heart Failure” (THE JOHNS HOPKINS UNIVERSITY, priority 2009, published 2011).

System: β3−/− and WT mice with transverse aortic constriction (TAC)
Assay: Echocardiography in β3−/− and WT mice after TAC with BH4 in the diet
Assay type: in vivo, mouse
Settings: BH4 200 mg/kg/day in soft diet
Method: Experimental Model. Baseline echocardiography was performed on 8-week, 4-month, and 14-18 month-old homozygous β3^−/− mice (n=57 total, original breeding pairs kindly provided by Dr. Bradford Lowell (Klein et al. (1999)) and age-matched FVB background WT controls (n=13, Jackson Laboratories, Bar Harbor, Me.). Transverse aortic constriction (TAC) was performed on 8-week-old male β3^−/− (n=21) and age-matched male WT controls (n=24) as previously described (Takimoto et al. (2005)). Briefly, after anesthesia with isoflurane (2%), the chest was opened through a small thoracic window between ribs 2 and 4, and a 25 G needle placed on the transverse aorta. This needle size was chosen to elicit a milder response as initial studies using a standard TAC model (27 G needle) led to pulmonary edema and 100% early mortality in β3^−/− mice. The band was secured using a 7.0 prolene suture, the needle was then removed and the chest closed. Twelve animals per strain underwent sham surgery. To measure pressure changes after TAC, pressure volume loops were obtained using a Millar micromanometer catheter as previously described (Barouch et al. (2002)). Animals were sacrificed 3 or 9 weeks after TAC and myocardial tissue preserved in 10% formalin or snap-frozen in liquid nitrogen for subsequent analysis. To determine whether there were any differences in proximal pressures after TAC between strains, a 1.4 F pressure catheter (Millar Instruments, Houston, Tex.) was advanced into the ascending aorta from the LV, and pressures recorded before and after TAC. […] In vivo cardiac geometry and function were serially assessed by transthoracic echocardiography (Acuson Sequoia C256, 13 MHz transducer; Siemens) in conscious mice. M-mode LV end-systolic and end-diastolic cross-sectional diameter (LVESD, LVEDD), and the mean of septal and posterior wall thicknesses were determined from an average of 3-5 cardiac cycles. LV fractional shortening (% FS) and LV mass were determined using a cylindrical model as previously described (Barouch et al. (2003)).

C[C@H](O)[C@H](O)[C@H]1CNc2nc(N)[nH]c(=O)c2N1 [BH4, tetrahydrobiopterin]
change in fractional shortening (WT-TAC/BH4, 3 weeks of TAC): −1.8±3.0% | change in fractional shortening (β3−/− TAC/BH4, 3 weeks of TAC): −0.4±0.2% | increase in calculated LV mass (β3−/− TAC/BH4, 3 weeks of TAC): +15.0±6.8%
